A word on the Ki: it is the dissociation constant of the complex between target and ligand, obtained from inhibition or displacement. A lower Ki goes with higher affinity. One may read the IC50 as the point on the concentration scale where inhibition reaches its midpoint.

Each structure is given as a SMILES string.

Consider two molecules from paper PMC9330179 (ACS Omega, 2022).

Common to all, as to type: biochemical
Assay [1] addresses T1, cathepsin B (Homo sapiens, UniProt P07858).
In a further assay the target is cathepsin S (Homo sapiens, UniProt P25774). As to the kind of experiment: protease activity at a single dose. Conditions: read-out: GER-24 (50 μM) % control activity (100%, no inhibitor).
Sequence of cathepsin S (P25774 115-331): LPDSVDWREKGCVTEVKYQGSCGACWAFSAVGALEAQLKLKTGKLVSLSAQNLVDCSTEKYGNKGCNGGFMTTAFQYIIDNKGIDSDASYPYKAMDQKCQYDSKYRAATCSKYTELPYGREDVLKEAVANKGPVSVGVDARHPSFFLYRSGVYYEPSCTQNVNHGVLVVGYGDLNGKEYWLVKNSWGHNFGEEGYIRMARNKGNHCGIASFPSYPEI
For a further assay, the target named is cathepsin H (Homo sapiens, UniProt P09668). The assay can be described thus: protease activity at a single dose. The settings on record: read-out: GER-24 (50 μM) % control activity (100%, no inhibitor).
Sequence of cathepsin H (P09668 116-335, other chains not shown): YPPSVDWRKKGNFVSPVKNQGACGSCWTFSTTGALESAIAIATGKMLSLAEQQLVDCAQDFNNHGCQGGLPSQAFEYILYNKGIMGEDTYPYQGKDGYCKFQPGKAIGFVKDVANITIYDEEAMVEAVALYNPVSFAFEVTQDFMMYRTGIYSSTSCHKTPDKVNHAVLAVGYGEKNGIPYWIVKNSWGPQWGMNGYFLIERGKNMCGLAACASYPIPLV
A further assay addresses cathepsin V (Homo sapiens, UniProt O60911). As to the kind of experiment: protease activity at a single dose. Conditions: read-out: GER-24 (50 μM) % control activity (100%, no inhibitor).
In assay [2] the target is T1, cathepsin B. As to the kind of experiment: fluorogenic Z-Glu-Lys-AMC assay at pH […], IC50.
Another assay concerns the target T2, cathepsin K (Homo sapiens, UniProt P43235).
T2 sequence (P43235 115-329): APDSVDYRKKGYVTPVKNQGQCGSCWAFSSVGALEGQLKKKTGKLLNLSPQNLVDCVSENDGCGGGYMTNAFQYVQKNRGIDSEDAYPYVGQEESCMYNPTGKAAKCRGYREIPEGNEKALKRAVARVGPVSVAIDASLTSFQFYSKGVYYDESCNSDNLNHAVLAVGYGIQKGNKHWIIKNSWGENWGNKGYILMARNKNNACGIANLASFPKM
As to the kind of experiment: protease activity at a single dose. The settings on record: read-out: GER-24 (50 μM) % control activity (100%, no inhibitor).

Sequence of cathepsin V (O60911 114-334): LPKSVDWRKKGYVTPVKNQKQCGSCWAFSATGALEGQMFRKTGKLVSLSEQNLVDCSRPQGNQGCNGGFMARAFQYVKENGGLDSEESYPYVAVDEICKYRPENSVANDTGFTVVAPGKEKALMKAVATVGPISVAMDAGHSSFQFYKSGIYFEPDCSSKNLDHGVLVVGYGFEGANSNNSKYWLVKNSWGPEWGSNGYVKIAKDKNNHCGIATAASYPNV

Consider `O=S(=O)(O)Oc1ccc(Oc2cc(Br)c(Oc3ccc(OS(=O)(=O)O)c(Oc4ccc(Br)cc4Br)c3Br)c(Oc3ccc(Br)cc3Br)c2)cc1Br` [GER-12, Crossbyanol B], for which, on cathepsin B [1], the inhibition constant Ki stood at 1.4 µM.

As to `CCCCC/C=C\C/C=C\C=C/C#CCCCC(=O)O` [GER-24, (7Z,9Z,12Z)-octadeca-7,9,12-trien-5-ynoic acid], the remaining activity at 50 µM came out at 0% at cathepsin S, 21% on cathepsin H, 17% on cathepsin V and 7% at cathepsin K. Moreover, the IC50 against cathepsin B [2] is 16 µM.
